Laboratory results taken from ChEMBL document CHEMBL3046611, “Anti-tubercular agents from Ammannia baccifera (Linn.)” (2013).
Converted amounts (≈) assume the structure as drawn.

Test system: Mycobacterium tuberculosis
Test: Antimycobacterial activity against Mycobacterium tuberculosis H37Rv ATCC 27294 assessed as growth inhibition by agar dilution method
Assay type: functional
Conditions: not given

Row | SMILES | MIC
1 | O=C1CC[C@H](O)c2ccccc21 [(-)-4-HYDROXY-ALPHA-TETRALONE] | 4 µg/mL (≈ 24.7 µM)

Test system: Mycobacterium tuberculosis
Test: Antitubercular activity against Mycobacterium tuberculosis H37Rv ATCC 27294 assessed as growth inhibition after 24 hr by BACTEC-460 radiometric susceptibility assay
Assay type: functional
Conditions: H37Rv ATCC 27294, 24 h

Row | SMILES | MIC
2 | COc1cc(C(=O)O[C@H]2CCC(=O)c3ccccc32)cc(OC)c1OC [4-O-(3,4,5-TRIMETHOXYBENZOYL)-ALPHA-TETRALONE] | 100 µg/mL (≈ 281 µM)
3 | O=C(O[C@H]1CCC(=O)c2ccccc21)c1ccccc1 [4-O-BENZOYL-ALPHA-TETRALONE] | 100 µg/mL (≈ 376 µM)
4 | COc1cccc(C(=O)O[C@H]2CCC(=O)c3ccccc32)c1 [4-O-META-ANISOYL-ALPHA-TETRALONE] | 100 µg/mL (≈ 337 µM)
5 | CCCCCCCCCCCCCC(=O)O[C@H]1CCC(=O)c2ccccc21 [4-O-MYRICITOYL-ALPHA-TETRALONE] | 50 µg/mL (≈ 134 µM)
6 | CCCCCCCCCCCCCCCC(=O)O[C@H]1CCC(=O)c2ccccc21 [4-O-PALMITOYL-ALPHATETRALONE] | 100 µg/mL (≈ 250 µM)
7 | O=C1CC[C@H](O)c2ccccc21 [(-)-4-HYDROXY-ALPHA-TETRALONE] | 50 µg/mL (≈ 308 µM)
8 | O=C1CC[C@H](O[C@@H]2O[C@H](CO)[C@@H](O)[C@H](O)[C@H]2O)c2ccccc21 [TETRALONE-4-O-BETA-D-GLUCOPYRANOSIDE] | 100 µg/mL (≈ 308 µM)
